We go through 25 compounds from patent US10202353B2, “Therapeutic compounds” (Gilead Sciences, Inc., priority 2014, dated 2019).

The nature of data set [1]: Test B: Cytotoxicity Assay. The format is cell-based. To be noted: human, uninfected MT4 cells, same protocol as Test A. Here is the method:
(§1) For the antiviral assay, 40 μL of a concentration required to achieve a final effective 1× test concentration of 3-fold serially diluted compound in culture medium with 10% FBS was added to each well of a 384-well plate (10 concentrations) in quadruplicate. MT4 cells were next mixed with HIV-IIIb at an m.o.i of 0.003 for 1 hour, after which time 35 μL of virus/cell mixture (2000 cells) was immediately added to each well containing 40 μL of diluted compound. The plates were then incubated at 37° C. for 5 days. After 5 days of incubation, 25 μl of 2× concentrated CellTiter-Glo™ Reagent (catalog # G7571, Promega Biosciences, Inc., Madison, Wis.) was added to each well containing MT-4 cells. Cell lysis was carried out by incubating at room temperature for 10 min and then chemiluminescence was read. EC50 values were calculated as the compound concentration that caused a 50% decrease in luminescence signal, a measure of HIV-1 replication. Percent inhibition of virus-induced cell killing calculated from the dose response curve at 2 μM drug concentration is shown in the table below. Compound cytotoxicity and the corresponding CC50 values was determined using the same protocol as described in the antiviral assay (Test A) except that uninfected cells were used.

The test system of another data set is HIV-IIIb. Kind of data set: Test A: Antiviral assay in MT4 Cells. The format is cell-based, HIV-1. To be noted: Human immunodeficiency virus 1, 120 h; 2 μM drug concentration; MT4 cells infected with HIV-IIIb, 5 days; calculated from dose response curve; values normalized to 100% where greater than 100; read-out: % Inhibition at 2 μM (percent inhibition of virus-induced cell killing). The protocol:
as §1, with “below.” for “below. Compound cytotoxicity and the corresponding CC50 values was determined using the same protocol as described in the antiviral assay (Test A) except that uninfected cells were used.”

A value given as a limit tells only on which side of the number the result lay.

Turning to `COc1ccc(N(C)C(=O)[C@H](Cc2cc(F)cc(F)c2)NC(=O)Cn2nc(C(F)(F)F)c3c2CCC(C)(O)C3)cc1` (stereo partly drawn) [Compound 29, (2S)-3-(3,5-difluorophenyl)-2-(2-(5-hydroxy-5-methyl-3-(trifluoromethyl)-4,5,6,7-tetrahydro-1H-indazol-1-yl)acetamido)-N-(4-methoxyphenyl)-N-methylpropanamide], in data set [1], the midpoint of cytotoxicity, the CC50 at 5 days, lay at 32.1 µM. Besides, the inhibition at 2 µM in the data set with HIV-IIIb was 82%.
For `CN(C(=O)[C@H](Cc1ccccc1)NC(=O)Cn1nc(C(F)(F)F)c2c1CCCC2)c1ccc2ccccc2c1` [Compound 3, (S)—N-methyl-N-(naphthalen-2-yl)-3-phenyl-2-(2-(3-(trifluoromethyl)-4,5,6,7-tetrahydro-1H-indazol-1-yl)acetamido)propanamide] the same measures were 11.1 µM and 79%.
For `CN(C(=O)[C@H](Cc1cccc(C(N)=O)c1)NC(=O)Cn1nc(C(F)(F)F)c2c1CCCC2)c1ccccc1` [Compound 18, (S)-3-(3-(methyl(phenyl)amino)-3-oxo-2-(2-(3-(trifluoromethyl)-4,5,6,7-tetrahydro-1H-indazol-1-yl)acetamido)propyl)benzamide] the same measures were over 53 µM and 0%.
In turn, `CN(C(=O)[C@H](Cc1cc(F)cc(F)c1)NC(=O)Cn1[nH]c(=O)c2c1CCCC2)c1ccc(Cl)cc1` [Compound 30] returned a CC50 at 5 days in data set [1] of 22.2 µM. The inhibition at 2 µM with HIV-IIIb is 100%.
The corresponding values for `CN(C(=O)[C@H](Cc1cc(F)cc(F)c1)NC(=O)Cn1c(N)nc2c1c(=O)[nH]c(=O)n2C)c1ccc(Cl)cc1` [Compound 32, (S)-2-(2-(8-amino-3-methyl-2,6-dioxo-2,3-dihydro-1H-purin-7(6)-yl)acetamido)-N-(4-chlorophenyl)-3-(3,5-difluorophenyl)-N-methylpropanamide] are over 53 µM and 39%.
The corresponding values for `CN(C(=O)[C@H](Cc1cncn1C)NC(=O)Cn1nc(C(F)(F)F)c2c1CCCC2)c1ccccc1` [Compound 9] are over 53 µM and 5%.
For `CN(C(=O)[C@H](Cc1ccsc1)NC(=O)Cn1nc(C(F)(F)F)c2c1CCCC2)c1ccccc1` [Compound 22, (S)—N-methyl-N-phenyl-3-(thiophen-3-yl)-2-(2-(3-(trifluoromethyl)-4,5,6,7-tetrahydro-1H-indazol-1-yl)acetamido)propanamide] the same measures were 25 µM and 94%.
Take `CN(C(=O)[C@H](Cc1cccs1)NC(=O)Cn1nc(C(F)(F)F)c2c1CCCC2)c1ccccc1` [Compound 8]: half-maximal cytotoxicity in data set [1] (CC50 at 5 days) was put at 25.6 µM. Further, the inhibition at 2 µM with HIV-IIIb was 95%.
For `CN(C)c1ccc(N(C)C(=O)[C@H](Cc2ccccc2)NC(=O)Cn2nc(C(F)(F)F)c3c2CCCC3)cc1` [Compound 23, (S)—N-(4-(dimethylamino)phenyl)-N-methyl-3-phenyl-2-(2(3-(trifluoromethyl)-4,5,6,7-tetrahydro-1H-indazol-1-yl)acetamido)propanamide] the same measures were 19.2 µM and 100%.
For `CN(C(=O)[C@H](Cc1ccccn1)NC(=O)Cn1nc(C(F)(F)F)c2c1CCCC2)c1ccccc1` [Compound 7] the same measures were over 53 µM and 1%.
The corresponding values for `CN(C(=O)[C@H](Cc1cscn1)NC(=O)Cn1nc(C(F)(F)F)c2c1CCCC2)c1ccccc1` [Compound 11, (S)—N-methyl-N-phenyl-3-(thiazol-4-yl)-2-(2-(3-(trifluoromethyl)-4,5,6,7-tetrahydro-1H-indazol-1-yl)acetamido)propanamide] are over 53 µM and 21%.
The compound `CN(C(=O)[C@H](Cc1ccncc1)NC(=O)Cn1nc(C(F)(F)F)c2c1CCCC2)c1ccccc1` [Compound 5] displayed a CC50 at 5 days in data set [1] of over 53 µM. Moreover, the inhibition at 2 µM in the data set on HIV-IIIb was 0%.
The corresponding values for `CN(C(=O)[C@H](Cc1csc2ccccc12)NC(=O)Cn1nc(C(F)(F)F)c2c1CCCC2)c1ccccc1` [Compound 10, (S)-3-(benzo[b]thiophen-3-yl)-N-methyl-N-phenyl-2-(2-(3-(trifluoromethyl)-4,5,6,7-tetrahydro-1H-indazol-1-yl)acetamido)propanamide] are 10.5 µM and 2%.
The corresponding values for `CN(C(=O)[C@H](Cn1cccn1)NC(=O)Cn1nc(C(F)(F)F)c2c1CCCC2)c1ccccc1` [Compound 12, (S)—N-methyl-N-phenyl-3-(1H-pyrazol-1-yl)-2-(2-(3-(trifluoromethyl)-4,5,6,7-tetrahydro-1H-indazol-1-yl)acetamido)propanamide] are over 53 µM and 10%.
The corresponding values for `CN(C(=O)[C@H](Cc1cc(F)cc(F)c1)NC(=O)Cn1nc(C(F)(F)F)c2c1CCCC2)c1ccc(F)cc1` [Compound 24, (S)-3-(3,5-difluorophenyl)-N-(4-fluorophenyl)-N-methyl-2-(2-(3-(trifluoromethyl)-4,5,6,7-tetrahydro-1H-indazol-1-yl)acetamido)propanamide] are 12.2 µM and 93%.
In turn, `COc1ccc(N(C)C(=O)[C@H](Cc2ccccc2)NC(=O)Cn2nc(C(F)(F)F)c3c2CCCC3)cc1` [Compound 2] returned a CC50 at 5 days in data set [1] of 18.4 µM. Besides, the inhibition at 2 µM in the data set with HIV-IIIb is 100%.
The corresponding values for `COc1ccc(N(C)C(=O)[C@H](Cc2cc(F)cc(F)c2)NC(=O)Cn2ncc3c2CCCC3)cc1` [Compound 31, (S)-3-(3,5-difluorophenyl)-N-(4-methoxyphenyl)-N-methyl-2-(2-(4,5,6,7-tetrahydro-1H-indazol-1-yl)acetamido)propanamide] are over 53 µM and 78%.
For `CN(C(=O)[C@H](Cc1cccnc1)NC(=O)Cn1nc(C(F)(F)F)c2c1CCCC2)c1ccccc1` [Compound 6] the same measures were over 53 µM and 52%.
The corresponding values for `COc1ccc(N(C)C(=O)[C@H](Cc2cc(F)cc(F)c2)NC(=O)Cn2nc(C(F)(F)F)c3c2C(C)CCC3)cc1` (stereo partly drawn) [Compound 26, (2S)-3-(3,5-difluorophenyl)-N-(4-methoxyphenyl)-N-methyl-2-(2-(7-methyl-3-(trifluoromethyl)-4,5,6,7-tetrahydro-1H-indazol-1-yl)acetamido)propanamide] are 9.82 µM and 100%.
In data set [1], `CN(C(=O)[C@H](Cc1cc(F)cc(F)c1)NC(=O)Cc1cc(F)cc2c1OCOC2)c1ccc(Cl)cc1` [Compound 33, (S)—N-(4-chlorophenyl)-3-(3,5-difluorophenyl)-2-(2-(6-fluoro-4H-benzo[d][1,3]dioxin-8-yl)acetamido)-N-methylpropanamide] had a CC50 at 5 days of 18.4 µM. For the same compound, the inhibition at 2 µM in the data set on HIV-IIIb was 34%.
Consider `CN(C(=O)[C@H](Cc1cccc(C#N)c1)NC(=O)Cn1nc(C(F)(F)F)c2c1CCCC2)c1ccccc1` [Compound 15, (S)-3-(3-cyanophenyl)-N-methyl-N-phenyl-2-(2-(3-(trifluoromethyl)-4,5,6,7-tetrahydro-1H-indazol-1-yl)acetamido)propanamide], for which the midpoint of cytotoxicity in data set [1], the CC50 at 5 days, lay at 26.3 µM. Also, the inhibition at 2 µM with HIV-IIIb was 26%.
The corresponding values for `CN(C(=O)[C@H](Cc1cccc(Cl)c1)NC(=O)Cn1nc(C(F)(F)F)c2c1CCCC2)c1ccccc1` [Compound 16, (S)-3-(3-chlorophenyl)-N-methyl-N-phenyl-2-(2-(3-(trifluoromethyl)-4,5,6,7-tetrahydro-1H-indazol-1-yl)acetamido)propanamide] are 16.7 µM and 58%.
The corresponding values for `CN(C(=O)[C@H](Cc1ccccc1)NC(=O)Cn1nc(C(F)(F)F)c2c1CCCC2)c1ccccc1` [Compound 1, (S)—N-methyl-N,3-diphenyl-2-(2-(3-(trifluoromethyl)-4,5,6,7-tetrahydro-1H-indazol-1-yl)acetamido)propanamide] are 23.5 µM and 98%.
`CN(C(=O)[C@H](CC1CCC1)NC(=O)Cn1nc(C(F)(F)F)c2c1CCCC2)c1ccccc1` [Compound 14] yielded a CC50 at 5 days in data set [1] of 29 µM. In addition, in the data set with HIV-IIIb, the inhibition at 2 µM was 16%.
For `CN(C(=O)[C@H](Cc1ccccc1)NC(=O)Cn1nc(C(F)(F)F)c2c1CCCCC2)c1ccccc1` [Compound 13] the same measures were 22.2 µM and 87%.

As a reminder, the CC50 is the concentration at which the toxic effect on the cells reaches its halfway point. A word on the inhibition: it is the drop in the measured response relative to a control, in per cent.
